Data from PubChem BioAssay (NCI).
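GI50 marks 50% less growth. At the TGI there is no net growth.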

What was measured:
Assay in all cases: NCI-60 cell line screen, 384-well format
A498 renal = tested on: A498 renal
A549 NSCLC = tested on: A549 NSCLC
ACHN renal = tested on: ACHN renal
BT-549 breast = tested on: BT-549 breast
CAKI-1 renal = tested on: CAKI-1 renal
COLO 205 colon = tested on: COLO 205 colon
DU-145 prostate = tested on: DU-145 prostate
EKVX NSCLC = tested on: EKVX NSCLC
HCC-2998 colon = tested on: HCC-2998 colon
HCT-116 colon = tested on: HCT-116 colon
HCT-15 colon = tested on: HCT-15 colon
HL-60(TB) leukemia = tested on: HL-60(TB) leukemia
HOP-62 NSCLC = tested on: HOP-62 NSCLC
HOP-92 NSCLC = tested on: HOP-92 NSCLC
HS 578T breast = tested on: HS 578T breast
HT29 colon = tested on: HT29 colon
IGROV1 ovarian = tested on: IGROV1 ovarian
KM12 colon = tested on: KM12 colon
LOX IMVI melanoma = tested on: LOX IMVI melanoma
M14 melanoma = tested on: M14 melanoma
MALME-3M melanoma = tested on: MALME-3M melanoma
MCF7 breast = tested on: MCF7 breast
MDA-MB-231 breast = tested on: MDA-MB-231 breast
MDA-MB-435 melanoma = tested on: MDA-MB-435 melanoma
MDA-MB-468 breast = tested on: MDA-MB-468 breast
MOLT-4 leukemia = tested on: MOLT-4 leukemia
NCI-H226 lung = tested on: NCI-H226 lung
NCI-H23 lung = tested on: NCI-H23 lung
NCI-H322M lung = tested on: NCI-H322M lung
NCI-H460 NSCLC = tested on: NCI-H460 NSCLC
NCI-H522 lung = tested on: NCI-H522 lung
NCI/ADR-RES ovarian = tested on: NCI/ADR-RES ovarian
OVCAR-3 ovarian = tested on: OVCAR-3 ovarian
OVCAR-4 ovarian = tested on: OVCAR-4 ovarian
OVCAR-5 ovarian = tested on: OVCAR-5 ovarian
OVCAR-8 ovarian = tested on: OVCAR-8 ovarian
PC-3 prostate = tested on: PC-3 prostate
RPMI-8226 leukemia = tested on: RPMI-8226 leukemia
RXF 393 renal = tested on: RXF 393 renal
SF-268 CNS = tested on: SF-268 CNS
SF-295 CNS = tested on: SF-295 CNS
SF-539 CNS = tested on: SF-539 CNS
SK-MEL-28 melanoma = tested on: SK-MEL-28 melanoma
SK-MEL-5 melanoma = tested on: SK-MEL-5 melanoma
SK-OV-3 ovarian = tested on: SK-OV-3 ovarian
SN12C renal = tested on: SN12C renal
SNB-19 CNS = tested on: SNB-19 CNS
SNB-75 CNS = tested on: SNB-75 CNS
SR leukemia = tested on: SR leukemia
T-47D breast = tested on: T-47D breast
TK-10 renal = tested on: TK-10 renal
U251 glioblastoma = tested on: U251 glioblastoma
UACC-257 melanoma = tested on: UACC-257 melanoma
UACC-62 melanoma = tested on: UACC-62 melanoma

For COc1cc2c(cc1-c1c(C)noc1C)ncc1[nH]c(=O)n([C@H](C)c3ccccn3)c12, the GI50 (A498 renal) was 0.693 µM, the TGI (A498 renal) was over 100 µM and the GI50 (A549 NSCLC) was 2.39 µM. For the same compound, the TGI (A549 NSCLC) was over 100 µM, the GI50 (ACHN renal) was 1.61 µM and the TGI (ACHN renal) was over 100 µM. The GI50 (BT-549 breast) was 0.504 µM, the TGI (BT-549 breast) was 11.4 µM and the GI50 (CAKI-1 renal) was 0.479 µM. The TGI (CAKI-1 renal) was over 100 µM, the GI50 (COLO 205 colon) was 0.498 µM and the TGI (COLO 205 colon) was 6.27 µM. For the same compound, the GI50 (DU-145 prostate) was 8.96 µM, the TGI (DU-145 prostate) was over 100 µM and the GI50 (EKVX NSCLC) was 27.7 µM. It also gave a TGI (EKVX NSCLC) of over 100 µM, a GI50 (HCC-2998 colon) of 0.303 µM and a TGI (HCC-2998 colon) of 2 µM. The GI50 (HCT-116 colon) was 1.9 µM, the TGI (HCT-116 colon) was over 100 µM and the GI50 (HCT-15 colon) was 0.488 µM. The TGI (HCT-15 colon) was 2.8 µM, the GI50 (HL-60(TB) leukemia) was 0.144 µM and the TGI (HL-60(TB) leukemia) was 0.277 µM. The GI50 (HOP-62 NSCLC) was 0.335 µM, the TGI (HOP-62 NSCLC) was 2.54 µM and the GI50 (HOP-92 NSCLC) was 11.4 µM. For the same compound, the TGI (HOP-92 NSCLC) was over 100 µM, the GI50 (HS 578T breast) was 0.342 µM and the TGI (HS 578T breast) was 21.5 µM. The GI50 (HT29 colon) was 0.412 µM, the TGI (HT29 colon) was over 100 µM and the GI50 (IGROV1 ovarian) was 0.584 µM. The TGI (IGROV1 ovarian) was 9.78 µM, the GI50 (KM12 colon) was 1.71 µM and the TGI (KM12 colon) was over 100 µM. The GI50 (LOX IMVI melanoma) was 0.245 µM, the TGI (LOX IMVI melanoma) was 0.574 µM and the GI50 (M14 melanoma) was 1.03 µM. For the same compound, the TGI (M14 melanoma) was 33.2 µM, the GI50 (MALME-3M melanoma) was 1.91 µM and the TGI (MALME-3M melanoma) was 32.5 µM. The GI50 (MCF7 breast) was 0.269 µM, the TGI (MCF7 breast) was over 100 µM and the GI50 (MDA-MB-231 breast) was 0.91 µM. It also gave a TGI (MDA-MB-231 breast) of over 100 µM, a GI50 (MDA-MB-435 melanoma) of 2.45 µM and a TGI (MDA-MB-435 melanoma) of 51.2 µM. For the same compound, the GI50 (MDA-MB-468 breast) was 0.872 µM, the TGI (MDA-MB-468 breast) was over 100 µM and the GI50 (MOLT-4 leukemia) was 0.915 µM. It also gave a TGI (MOLT-4 leukemia) of 7.74 µM, a GI50 (NCI-H226 lung) of 1.31 µM and a TGI (NCI-H226 lung) of 24.7 µM. The GI50 (NCI-H23 lung) was 1.25 µM, the TGI (NCI-H23 lung) was over 100 µM and the GI50 (NCI-H322M lung) was 0.509 µM. The TGI (NCI-H322M lung) was 9.51 µM, the GI50 (NCI-H460 NSCLC) was 2.92 µM and the TGI (NCI-H460 NSCLC) was over 100 µM. It also gave a GI50 (NCI-H522 lung) of 0.321 µM, a TGI (NCI-H522 lung) of 2.41 µM and a GI50 (NCI/ADR-RES ovarian) of 3.05 µM. For the same compound, the TGI (NCI/ADR-RES ovarian) was 16.8 µM, the GI50 (OVCAR-3 ovarian) was 0.421 µM and the TGI (OVCAR-3 ovarian) was 7.13 µM. For the same compound, the GI50 (OVCAR-4 ovarian) was 0.199 µM, the TGI (OVCAR-4 ovarian) was 0.615 µM and the GI50 (OVCAR-5 ovarian) was 0.392 µM. It also gave a TGI (OVCAR-5 ovarian) of 10.9 µM, a GI50 (OVCAR-8 ovarian) of 0.521 µM and a TGI (OVCAR-8 ovarian) of 9.6 µM. It also gave a GI50 (PC-3 prostate) of 0.743 µM, a TGI (PC-3 prostate) of over 100 µM and a GI50 (RPMI-8226 leukemia) of 0.212 µM. It also gave a TGI (RPMI-8226 leukemia) of 0.819 µM, a GI50 (RXF 393 renal) of 8.71 µM and a TGI (RXF 393 renal) of over 100 µM. It also gave a GI50 (SF-268 CNS) of 8.13 µM, a TGI (SF-268 CNS) of over 100 µM and a GI50 (SF-295 CNS) of 5.3 µM. It also gave a TGI (SF-295 CNS) of over 100 µM, a GI50 (SF-539 CNS) of 0.829 µM and a TGI (SF-539 CNS) of over 100 µM. For the same compound, the GI50 (SK-MEL-28 melanoma) was 2.64 µM, the TGI (SK-MEL-28 melanoma) was over 100 µM and the GI50 (SK-MEL-5 melanoma) was 0.438 µM. It also gave a TGI (SK-MEL-5 melanoma) of 8.69 µM, a GI50 (SK-OV-3 ovarian) of 0.577 µM and a TGI (SK-OV-3 ovarian) of 45.5 µM. For the same compound, the GI50 (SN12C renal) was 0.364 µM, the TGI (SN12C renal) was over 100 µM and the GI50 (SNB-19 CNS) was 0.922 µM. The TGI (SNB-19 CNS) was 63.5 µM, the GI50 (SNB-75 CNS) was 18.8 µM and the TGI (SNB-75 CNS) was over 100 µM. The GI50 (SR leukemia) was 0.297 µM, the TGI (SR leukemia) was 14.3 µM and the GI50 (T-47D breast) was 3.1 µM. The TGI (T-47D breast) was over 100 µM, the GI50 (TK-10 renal) was 0.575 µM and the TGI (TK-10 renal) was 12.4 µM. The GI50 (U251 glioblastoma) was 3.17 µM, the TGI (U251 glioblastoma) was over 100 µM and the GI50 (UACC-257 melanoma) was 0.503 µM. It also gave a TGI (UACC-257 melanoma) of 11.6 µM, a GI50 (UACC-62 melanoma) of 0.308 µM and a TGI (UACC-62 melanoma) of over 100 µM.
